Source: US7396849B2, “4-(Condensed cyclicmethyl)-imidazole-2-thiones acting as α2 adrenergic agonists” (Allergan, Inc., priority 2004, dated 2008)

Legend:
Type in all cases: cell-based
Settings in all cases: NIH-3T3 cells, ratio of maximal effect to that of standard full agonist brimonidine, NA = not active below 10 micromolar
[1] = target: T1, alpha2B adrenergic receptors (Homo sapiens, UniProt P18089); experiment: RSAT assay (Receptor Selection and Amplification Technology), alpha2B
T1 construct: expressed in transfected cells; host or cells: NIH-3T3 cells
T1 sequence (P18089 1-450): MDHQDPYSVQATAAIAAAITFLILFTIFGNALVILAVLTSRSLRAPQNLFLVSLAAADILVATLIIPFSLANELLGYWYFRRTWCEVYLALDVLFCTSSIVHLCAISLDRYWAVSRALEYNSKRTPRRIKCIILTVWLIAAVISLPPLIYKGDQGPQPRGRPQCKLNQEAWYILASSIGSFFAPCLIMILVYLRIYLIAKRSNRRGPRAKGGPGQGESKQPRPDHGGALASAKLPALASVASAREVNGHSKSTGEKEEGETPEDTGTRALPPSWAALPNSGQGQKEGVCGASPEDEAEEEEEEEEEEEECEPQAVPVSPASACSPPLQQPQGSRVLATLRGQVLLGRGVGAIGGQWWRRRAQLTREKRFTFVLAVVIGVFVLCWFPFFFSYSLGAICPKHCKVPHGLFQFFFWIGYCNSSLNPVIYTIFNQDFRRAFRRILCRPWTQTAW
Source text: (§1) The imidazole-2-thione compounds of the invention are agonists of alpha2 adrenergic receptors. Many compounds of the invention are specific or selective agonists of alpha2B and/or to a lesser extent alpha2C adrenergic receptors, in preference over alpha2A adrenergic receptors. […] 76, pp. 308-311 (incorporated herein by reference) and is also described below. Another reference pertinent to this assay is Conklin et al. (1993) Nature 363:274-6, Receptor Selection and Amplification Technology (RSAT) assay, also incorporated herein by reference.
(§2) The RSAT assay measures a receptor-mediated loss of contact inhibition that results in selective proliferation of receptor-containing cells in a mixed population of confluent cells. The increase in cell number is assessed with an appropriate transfected marker gene such as β-galactosidase, the activity of which can be easily measured in a 96-well format. Receptors that activate the G protein, Gq, elicit this response. Alpha2 receptors, which normally couple to Gi, activate the RSAT response when coexpressed with a hybrid Gq protein that has a Gi receptor recognition domain, called Gq/i5.
(§3) NIH-3T3 cells are plated at a density of 2×10^6 cells in 15 cm dishes and maintained in Dulbecco's modified Eagle's medium supplemented with 10% calf serum. One day later, cells are cotransfected by calcium phosphate precipitation with mammalian expression plasmids encoding p-SV-β-galactosidase (5-10 μg), receptor (1-2 μg) and G protein (1-2 μg). 40 μg salmon sperm DNA may also be included in the transfection mixture. Fresh media is added on the following day and 1-2 days later, cells are harvested and frozen in 50 assay aliquots. Cells are thawed and 100 μl added to 100 μl aliquots of various concentrations of drugs in triplicate in 96-well dishes. Incubations continue 72-96 hr at 37° C. After washing with phosphate-buffered saline, β-galactosidase enzyme activity is determined by adding 200 μl of the chromogenic substrate (consisting of 3.5 mM o-nitrophenyl-β-D-galactopyranoside and 0.5% nonidet P-40 in phosphate buffered saline), incubating overnight at 30° C. and measuring optical density at 420 nm. The absorbance is a measure of enzyme activity, which depends on cell number and reflects a receptor-mediated cell proliferation. The efficacy or intrinsic activity is calculated as a ratio of the maximal effect of the drug to the maximal effect of a standard full agonist for each receptor subtype. Brimonidine, also called UK14304, the chemical structure of which is shown below, is used as the standard agonist for the alpha2A, alpha2B and alpha2C receptors.
(§4) The results of the RSAT assay with several exemplary compounds of the invention are disclosed in Table 1 above together with the chemical formulas of these examplary compounds. NA stands for “not active” at cohcentrations less than 10 micromolar.

[2] = target: T2, alpha2C adrenergic receptors (Homo sapiens, UniProt P18825); experiment: RSAT assay (Receptor Selection and Amplification Technology), alpha2C
T2 construct: expressed in transfected cells; host or cells: NIH-3T3 cells
T2 sequence (P18825 1-462): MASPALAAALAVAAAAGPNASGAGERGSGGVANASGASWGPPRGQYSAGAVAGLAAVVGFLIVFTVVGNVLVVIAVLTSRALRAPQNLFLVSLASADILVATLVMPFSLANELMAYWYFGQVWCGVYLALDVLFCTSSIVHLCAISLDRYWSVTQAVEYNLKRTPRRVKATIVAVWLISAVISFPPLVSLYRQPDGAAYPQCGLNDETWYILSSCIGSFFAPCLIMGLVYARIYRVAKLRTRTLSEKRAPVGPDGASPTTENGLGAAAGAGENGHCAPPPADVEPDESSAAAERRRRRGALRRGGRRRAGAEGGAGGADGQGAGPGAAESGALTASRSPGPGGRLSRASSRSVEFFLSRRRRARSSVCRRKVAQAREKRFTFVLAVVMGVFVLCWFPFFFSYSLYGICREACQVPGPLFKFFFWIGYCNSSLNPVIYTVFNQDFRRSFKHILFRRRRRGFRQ
Source text: as §1, §2, §3, §4

[3] = target: T3, alpha2A adrenergic receptors (Homo sapiens, UniProt P08913); experiment: RSAT assay (Receptor Selection and Amplification Technology), alpha2A
T3 construct: expressed in transfected cells; host or cells: NIH-3T3 cells
T3 sequence (P08913 1-465): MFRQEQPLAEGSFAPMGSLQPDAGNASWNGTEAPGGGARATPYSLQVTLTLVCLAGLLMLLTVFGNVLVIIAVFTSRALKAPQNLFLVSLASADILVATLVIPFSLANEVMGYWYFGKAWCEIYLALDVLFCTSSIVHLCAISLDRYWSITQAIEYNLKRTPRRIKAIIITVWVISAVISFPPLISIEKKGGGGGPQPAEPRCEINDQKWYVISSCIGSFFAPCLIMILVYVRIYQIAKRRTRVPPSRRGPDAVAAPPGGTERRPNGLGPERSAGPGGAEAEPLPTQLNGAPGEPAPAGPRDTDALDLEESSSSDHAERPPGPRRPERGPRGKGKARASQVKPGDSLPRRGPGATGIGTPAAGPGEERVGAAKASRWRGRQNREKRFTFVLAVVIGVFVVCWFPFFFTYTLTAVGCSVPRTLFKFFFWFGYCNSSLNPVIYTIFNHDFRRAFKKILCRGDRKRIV
Source text: as §1, §2, §3, §4

Compound: CC(c1c[nH]c(=S)[nH]1)c1cccc2ncccc12 (single isomer, unassigned; (+)) [Compound 14, (+)-4-(1-quinolin-5-yl-ethyl)-1,3-dihydro-imidazole-2-thione]
- Intrinsic Activity Alpha 2B [1]: 0.86

Compound: S=c1[nH]cc(Cc2cccc3c2OCCO3)[nH]1 [Compound 1, 4-(2,3-dihydro-benzo[1,4]dioxin-5-ylmethyl)-1,3-dihydro-imidazole-2-thione]
- Intrinsic Activity Alpha 2C [2]: 0.56
- Intrinsic Activity Alpha 2A [3]: 0.44
- Intrinsic Activity Alpha 2B [1]: 0.94

Compound: CC(c1c[nH]c(=S)[nH]1)c1cccc2c1OCCO2 (stereo not drawn) [Compound 2, 4-[1-(2,3-dihydro-benzo[1,4]dioxin-5-yl)-ethyl]-1,3-dihydro-imidazole-2-thione]
- Intrinsic Activity Alpha 2C [2]: 0.48
- Intrinsic Activity Alpha 2A [3]: 0.45
- Intrinsic Activity Alpha 2B [1]: 1.38

Compound: CC(c1c[nH]c(=S)[nH]1)c1cccc2c1OCO2 (stereo not drawn) [Compound 3, 4-(1-benzo[1,3]dioxol-4-yl-ethyl)-1,3-dihydro-imidazole-2-thione]
- Intrinsic Activity Alpha 2C [2]: 0.77
- Intrinsic Activity Alpha 2A [3]: 0.56
- Intrinsic Activity Alpha 2B [1]: 0.97

Compound: CC(c1c[nH]c(=S)[nH]1)c1cccc2cccnc12 (stereo not drawn) [Compound 4, 4-(1-quinolin-8-yl-ethyl)-1,3-dihydro-imidazole-2-thione]
- Intrinsic Activity Alpha 2C [2]: 0.62
- Intrinsic Activity Alpha 2A [3]: 0.80
- Intrinsic Activity Alpha 2B [1]: 1.03

Compound: S=c1[nH]cc(Cc2ccc3c(c2)OCO3)[nH]1 [Compound 5, 4-benzo[1,3]dioxol-5-ylmethyl-1,3-dihydro-imidazole-2-thione]
- Intrinsic Activity Alpha 2B [1]: 1.05

Compound: S=c1[nH]cc(Cc2cccc3ccccc23)[nH]1 [Compound 6, 4-naphthalen-1-ylmethyl-1,3-dihydro-imidazole-2-thione]
- Intrinsic Activity Alpha 2C [2]: 0.55
- Intrinsic Activity Alpha 2A [3]: 0.48
- Intrinsic Activity Alpha 2B [1]: 0.73

Compound: S=c1[nH]cc(Cc2cccc3cccnc23)[nH]1 [Compound 8, 4-quinolin-8-ylmethyl-1,3-dihydro-imidazole-2-thione]
- Intrinsic Activity Alpha 2C [2]: 0.75
- Intrinsic Activity Alpha 2A [3]: 0.93
- Intrinsic Activity Alpha 2B [1]: 1.01

Compound: S=c1[nH]cc(Cc2cccc3ncccc23)[nH]1 [Compound 9, 4-quinolin-5-ylmethyl-1,3-dihydro-imidazole-2-thione]
- Intrinsic Activity Alpha 2B [1]: 0.74

Compound: CC(c1c[nH]c(=S)[nH]1)c1cccc2ccccc12 (stereo not drawn) [Compound 10, 4-(1-naphthalen-1-yl-ethyl)-1,3-dihydro-imidazole-2-thione]
- Intrinsic Activity Alpha 2A [3]: 0.52
- Intrinsic Activity Alpha 2B [1]: 1.21

Compound: S=c1[nH]cc(Cc2ccc3ccccc3c2)[nH]1 [Compound 11, 4-naphthalen-2-ylmethyl-1,3-dihydro-imidazole-2-thione]
- Intrinsic Activity Alpha 2B [1]: 0.94

Compound: CC(c1ccc2c(c1)OCCO2)c1c[nH]c(=S)[nH]1 (stereo not drawn) [Compound 12, 4-[1-(2,3-dihydro-benzo[1,4]dioxin-6-yl)-ethyl]-1,3-dihydro-imidazole-2-thione]
- Intrinsic Activity Alpha 2A [3]: 0.54
- Intrinsic Activity Alpha 2B [1]: 1.15

Compound: S=c1[nH]cc(Cc2ccc3c(c2)CCCS3)[nH]1 [Compound 13, 4-thiochroman-6-ylmethyl-1,3-dihydro-imidazole-2-thione]
- Intrinsic Activity Alpha 2B [1]: 0.95

Compound: S=c1[nH]cc(Cc2cccc3nsnc23)[nH]1 [Compound-16, 4-benzo[1,2,5]thiadiazol-4-ylmethyl-1,3-dihydro-imidazole-2-thione]
- Intrinsic Activity Alpha 2C [2]: 0.69
- Intrinsic Activity Alpha 2B [1]: 1.22

Compound: CC(c1c[nH]c(=S)[nH]1)c1cccc2nsnc12 (stereo not drawn) [Compound-17, 4-(1-benzo[1,2,5]thiadiazol-4-yl-ethyl)-1,3-dihydro-imidazole-2-thione]
- Intrinsic Activity Alpha 2B [1]: 0.98

Compound: Cc1c(C(C)c2c[nH]c(=S)[nH]2)ccc2cccnc12 (stereo not drawn) [Compound-18, 4-[1-(8-methyl-quinolin-7-yl)-ethyl]-1,3-dihydro-imidazole-2-thione]
- Intrinsic Activity Alpha 2C [2]: 0.41
- Intrinsic Activity Alpha 2A [3]: 0.80
- Intrinsic Activity Alpha 2B [1]: 1.05
